Legend:
[1] = molecular target: T1, recombinantly produced rat receptor (1α,25-dihydroxyvitamin D receptor) (Rattus norvegicus, UniProt P13053); experiment: Competitive VDR binding; conditions: FIGS. 1 and 2
T1 construct: made in house
T1 sequence (P13053 1-423): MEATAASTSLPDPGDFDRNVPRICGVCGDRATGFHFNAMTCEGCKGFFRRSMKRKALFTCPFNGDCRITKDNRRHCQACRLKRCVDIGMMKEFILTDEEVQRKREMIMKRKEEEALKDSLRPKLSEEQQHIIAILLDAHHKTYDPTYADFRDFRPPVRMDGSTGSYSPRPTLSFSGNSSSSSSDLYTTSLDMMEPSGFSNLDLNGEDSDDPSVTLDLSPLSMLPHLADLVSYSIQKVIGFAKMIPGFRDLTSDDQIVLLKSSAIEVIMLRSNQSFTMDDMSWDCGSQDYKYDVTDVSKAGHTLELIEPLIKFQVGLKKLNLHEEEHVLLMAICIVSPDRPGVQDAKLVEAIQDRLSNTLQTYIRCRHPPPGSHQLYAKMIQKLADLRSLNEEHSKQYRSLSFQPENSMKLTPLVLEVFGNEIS
Description: FIGS. 1 and 2—Competitive VDR Binding
Competitive binding of the analogs to the porcine intestinal receptor was carried out by the method described by Dame et al (Biochemistry 25, 4523-4534, 1986), except the recombinantly produced rat receptor was used as the receptor (see Vanhooke et al., Biochemistry, in press, 2004).

[2] = system: human leukemia cells (HL-60 cells); experiment: HL-60 cell differentiation (NBT reduction); type: cell-based; conditions: NBT assay; for potency in promoting the differentiation of leukemia cells: HL-60 cells to monocytes, FIG. 3; for percent of HL-60 cells induced to differentiate: concentration 1×10^−7 M
Description: FIG. 3—EL-60 Cell Differentiation
The differentiation of HL-60 promyelocytic into monocytes was determined as described by Ostrem et al (J. Biol. Chem. 262, 14164-14171, 1987).
Differentiation activity was assessed by a standard differentiation assay, abbreviated as NBT reduction (nitroblue tetrazolium reduction). The assay was conducted according to known procedures, as given, for example, by DeLuca et al U.S. Pat. No. 4,717,721 and Ostrem et al, J. Biol. Chem. 262, 14164, 1987. For the assay, the differentiation activity of the test compounds is expressed in terms of the percent of HL-60 cells having differentiated to normal cells in response to a given concentration of test compound.

[3] = system: 24-hydroxylase (24OHase) gene promoter; experiment: Transcription activation, 24-hydroxylase promoter luciferase reporter in ROS 17/2.8 (bone) cells; type: cell-based; conditions: ROS 17/2.8 cells, luciferase 16 hours after dosing, FIG. 4
Description: FIG. 4—Transcription Activation
Transcriptional activity was measured in ROS 17/2.8 (bone) cells that were stably transfected with a 24-hydroxylase (24OHase) gene promoter upstream of a luciferase reporter gene (Arbour et al., 1998). Cells were given a range of doses. Sixteen hours after dosing the cells were harvested and luciferase activities were measured using a luminometer.
“RLU” in FIG. 4 refers to relative luciferase units.

[4] = system: intestinal calcium transport; experiment: Intestinal calcium transport, everted gut sac method; type: in vivo, Sprague-Dawley rats; conditions: rats, four consecutive ip doses, FIG. 5
Description: (§1) FIGS. 5 and 6—Intestinal Calcium Transport and Bone Calcium Mobilization
(§2) Male, weanling Sprague-Dawley rats were placed on Diet 11 (0.47% Ca) diet+AEK for one week followed by Diet 11 (0.02% Ca)+AEK for 3 weeks. The rats were then switched to a diet containing 0.47% Ca for one week followed by two weeks on a diet containing 0.02% Ca. Dose administration began during the last week on 0.02% calcium diet. Four consecutive ip doses-were given approximately 24 hours apart. Twenty-four hours after the last dose, blood was collected from the severed neck and the concentration of serum calcium determined as a measure of bone calcium mobilization. The first 10 cm of the intestine was also collected for intestinal calcium transport analysis using the everted gut sac method.

[5] = system: bone calcium mobilization; experiment: Bone calcium mobilization (serum calcium); type: in vivo, Sprague-Dawley rats; conditions: rats, four consecutive ip doses, FIG. 6
Description: as §1, §2

Question: What does the source list for “2-[(3′-methoxymethoxy)propylidene]-19-nor-1α,25-dihydroxyvitamin D3 [F-Wit]”?
Answer: activity in binding to the 1α,25-hydroxyvitamin D3 rat receptor [1]: very active; potency in promoting the differentiation of leukemia cells [2]: as potent as 1α,25-dihydroxyvitamin D3 and 2MD; percent of HL-60 cells induced to differentiate [2]: the same degree of differentiation; transcriptional activity in bone cells [3]: significant transcriptional activity; intestinal calcium transport activity [4]: relatively high intestinal calcium transport activity; intestinal calcium transport activity compared with 2MD [4]: more active than 2M; ability to mobilize calcium from bone [5]: significant ability to mobilize calcium from bone; bone calcium mobilization compared with 2MD [5]: less active in this regard than 2MD

Question: Which “percent of HL-60 cells induced to differentiate” value [2] does the source give for `C=C1/C(=C\C=C2/CCC[C@]3(C)[C@@H]([C@H](C)CCCC(C)(C)O)CC[C@@H]23)C[C@@H](O)C[C@@H]1O` [1α,25-dihydroxyvitamin D3, reference compound] here?
Answer: Its value is roughly 90%.

Question: For “(20R)-1α,25-dihydroxy-2-[3′-hydroxypropylidene]-19-norvitamin D3 [1AGR]”, which “activity in binding to the 1α,25-hydroxyvitamin D3 rat receptor” value [1] is on record?
Answer: Its value is “very active”.

Question: What about the “potency in promoting the differentiation of leukemia cells” value [2] of the same compound?
Answer: The value was “as potent as 1α,25-dihydroxyvitamin D3 and 2MD”.

Question: What about the “percent of HL-60 cells induced to differentiate” value [2] of the same compound?
Answer: Its value is “the same degree of differentiation”.

Question: And the “transcriptional activity in bone cells” value [3]?
Answer: The value was “significant transcriptional activity”.

Question: And the “intestinal calcium transport activity” value [4]?
Answer: Its value is “relatively high intestinal calcium transport activity”.

Question: What about the “intestinal calcium transport activity compared with 2MD” value [4] of the same compound?
Answer: Its value is “more active than 2M”.

Question: What about the “ability to mobilize calcium from bone” value [5] of the same compound?
Answer: The value was “significant ability to mobilize calcium from bone”.

Question: And the “bone calcium mobilization compared with 2MD” value [5]?
Answer: Its value is “less active in this regard than 2MD”.

Question: Which results are given for “(20S)-1α,25-dihydroxy-2-[3′-hydroxypropylidene]-19-norvitamin D3 [1AGS]”?
Answer: activity in binding to the 1α,25-hydroxyvitamin D3 rat receptor [1]: very active; potency in promoting the differentiation of leukemia cells [2]: as potent as 1α,25-dihydroxyvitamin D3 and 2MD; percent of HL-60 cells induced to differentiate [2]: the same degree of differentiation; transcriptional activity in bone cells [3]: significant transcriptional activity; intestinal calcium transport activity [4]: relatively high intestinal calcium transport activity; intestinal calcium transport activity compared with 2MD [4]: more active than 2M; ability to mobilize calcium from bone [5]: significant ability to mobilize calcium from bone; bone calcium mobilization compared with 2MD [5]: less active in this regard than 2MD

From patent publication US20060293291A1, “2-Propylidene-19-nor-vitamin d compounds” (priority 2003, published 2006)
